Reference: patent publication US10202377B2, “3-(1H-benzo[D]imidazol-2-yl)-1H-pyrazolo[3,4-C]pyridine and therapeutic uses thereof” (Samumed, LLC, priority 2014, dated 2019)

tested on: Wnt activity (Sp5-Luc reporter, SW480 colon carcinoma cells); assay: Sp5-Luc Wnt reporter gene screening assay in SW480 colon carcinoma cells; details: Homo sapiens

Row | SMILES | IC50
1 | CCCC(=O)Nc1cncc(-c2cc3c(-c4nc5c(-c6ccncc6)cccc5[nH]4)n[nH]c3cn2)c1 [Compound 121, N-(5-(3-(4-(Pyridin-4-yl)-1H-benzo[d]imidazol-2-yl)-1H-pyrazolo[3,4-c]pyridin-5-yl)pyridin-3-yl)butyramide] | > 10 µM
2 | CC(C)C(=O)Nc1cncc(-c2cc3c(-c4nc5c(N6CCN(C)CC6)cccc5[nH]4)n[nH]c3cn2)c1 [Compound 217, N-(5-(3-(4-(4-Methylpiperazin-1-yl)-1H-benzo[d]imidazol-2-yl)-1H-pyrazolo[3,4-c]pyridin-5-yl)pyridin-3-yl)isobutyramide] | 0.355 µM
3 | O=C(Nc1cncc(-c2cc3c(-c4nc5ccccc5[nH]4)n[nH]c3cn2)c1)C1CCCCC1 [Compound 256, N-(5-(3-(1H-Benzo[d]imidazol-2-yl)-1H-pyrazolo[3,4-c]pyridin-5-yl)pyridin-3-yl)cyclohexanecarboxamide] | 0.0956 µM
4 | O=C(Nc1cncc(-c2cc3c(-c4nc5c(-c6ccsc6)cccc5[nH]4)n[nH]c3cn2)c1)C1CCC1 [Compound 280, N-(5-(3-(4-(Thiophen-3-yl)-1H-benzo[d]imidazol-2-yl)-1H-pyrazolo[3,4-c]pyridin-5-yl)pyridin-3-yl)cyclobutanecarboxamide] | 0.0062 µM
5 | CCCCC(=O)Nc1cncc(-c2cc3c(-c4nc5c(-c6ccoc6)cccc5[nH]4)n[nH]c3cn2)c1 [Compound 304, N-(5-(3-(4-(Furan-3-yl)-1H-benzo[d]imidazol-2-yl)-1H-pyrazolo[3,4-c]pyridin-5-yl)pyridin-3-yl)pentanamide] | 0.145 µM
6 | O=C(Nc1cncc(-c2cc3c(-c4nc5c(-c6ccoc6)cccc5[nH]4)n[nH]c3cn2)c1)C1CCC1 [Compound 306, N-(5-(3-(4-(Furan-3-yl)-1H-benzo[d]imidazol-2-yl)-1H-pyrazolo[3,4-c]pyridin-5-yl)pyridin-3-yl)cyclobutanecarboxamide] | 0.0168 µM
7 | CN(C)c1cncc(-c2cc3c(-c4nc5c(-c6cccs6)cccc5[nH]4)n[nH]c3cn2)c1 [Compound 319, N,N-Dimethyl-5-(3-(4-(thiophen-2-yl)-1H-benzo[d]imidazol-2-yl)-1H-pyrazolo[3,4-c]pyridin-5-yl)pyridin-3-amine] | 0.0779 µM
8 | CC(C)CC(=O)Nc1cncc(-c2cc3c(-c4nc5c(-c6ccc(F)s6)cccc5[nH]4)n[nH]c3cn2)c1 [Compound 340, N-(5-(3-(4-(5-Fluorothiophen-2-yl)-1H-benzo[d]imidazol-2-yl)-1H-pyrazolo[3,4-c]pyridin-5-yl)pyridin-3-yl)-3-methylbutanamide] | 0.0173 µM
9 | CC(=O)c1ccc(-c2cccc3[nH]c(-c4n[nH]c5cnc(-c6cncc(NC(=O)CC(C)(C)C)c6)cc45)nc23)s1 [Compound 406, N-(5-(3-(4-(5-Acetylthiophen-2-yl)-1H-benzo[d]imidazol-2-yl)-1H-pyrazolo[3,4-c]pyridin-5-yl)pyridin-3-yl)-3,3-dimethylbutanamide] | 0.247 µM
10 | CS(=O)(=O)NCc1cc(F)cc(-c2cccc3[nH]c(-c4n[nH]c5cnc(-c6cncc(NC(=O)C7CCC7)c6)cc45)nc23)c1 [Compound 436, N-(5-(3-(4-(3-Fluoro-5-(methylsulfonamidomethyl)phenyl)-1H-benzo[d]imidazol-2-yl)-1H-pyrazolo[3,4-c]pyridin-5-yl)pyridin-3-yl) cyclobutanecarboxamide] | 0.0258 µM
11 | Fc1cccc(-c2cccc3[nH]c(-c4n[nH]c5cnc(C6=CCNCC6)cc45)nc23)c1 [Compound 938, 3-(4-(3-Fluorophenyl)-1H-benzo[d]imidazol-2-yl)-5-(1,2,3,6-tetrahydropyridin-4-yl)-1H-pyrazolo[3,4-c]pyridine] | 0.145 µM
12 | Cn1cc(-c2cc3c(-c4nc5c(-c6cccc(F)c6)cccc5[nH]4)n[nH]c3cn2)cn1 [Compound 940, 3-(4-(3-Fluorophenyl)-1H-benzo[d]imidazol-2-yl)-5-(1-methyl-1H-pyrazol-4-yl)-1H-pyrazolo[3,4-c]pyridine] | 0.046 µM
13 | Cc1ncc(-c2cc3c(-c4nc5c(-c6cccc(F)c6)cccc5[nH]4)n[nH]c3cn2)n1C [Compound 941, 5-(1,2-Dimethyl-1H-imidazol-5-yl)-3-(4-(3-fluorophenyl)-1H-benzo[d]imidazol-2-yl)-1H-pyrazolo[3,4-c]pyridine] | 0.334 µM
14 | NC1CN(c2cncc(-c3cc4c(-c5nc6c(-c7cccc(F)c7)cccc6[nH]5)n[nH]c4cn3)n2)C1 [Compound 942, 1-(6-(3-(4-(3-Fluorophenyl)-1H-benzo[d]imidazol-2-yl)-1H-pyrazolo[3,4-c]pyridin-5-yl)pyrazin-2-yl)azetidin-3-amine] | 0.079 µM
15 | Fc1cccc(-c2cccc3[nH]c(-c4n[nH]c5cnc(-c6cncc(OC7CCCCC7)c6)cc45)nc23)c1 [Compound 943, 5-(5-(Cyclohexyloxy)pyridin-3-yl)-3-(4-(3-fluorophenyl)-1H-benzo[d]imidazol-2-yl)-1H-pyrazolo[3,4-c]pyridine] | 0.56 µM
16 | Fc1cccc(-c2cccc3[nH]c(-c4n[nH]c5cnc(-c6cncc(OC7CCNCC7)c6)cc45)nc23)c1 [Compound 944, 3-(4-(3-Fluorophenyl)-1H-benzo[d]imidazol-2-yl)-5-(5-(piperidin-4-yloxy)pyridin-3-yl)-1H-pyrazolo[3,4-c]pyridine] | 1.21 µM
17 | O=C(CC1CCNCC1)Nc1cncc(-c2cc3c(-c4nc5c(-c6cccc(F)c6)cccc5[nH]4)n[nH]c3cn2)c1 [Compound 945, N-(5-(3-(4-(3-Fluorophenyl)-1H-benzo[d]imidazol-2-yl)-1H-pyrazolo[3,4-c]pyridin-5-yl)pyridin-3-yl)-2-(piperidin-4-yl)acetamide] | > 10 µM
18 | Fc1cccc(-c2cccc3[nH]c(-c4n[nH]c5cnc(-c6cncc(OCCN7CCCC7)c6)cc45)nc23)c1 [Compound 946, 3-(4-(3-Fluorophenyl)-1H-benzo[d]imidazol-2-yl)-5-(5-(2-(pyrrolidin-1-yl)ethoxy)pyridin-3-yl)-1H-pyrazolo[3,4-c]pyridine] | 0.58 µM
19 | Fc1cccc(-c2cccc3[nH]c(-c4n[nH]c5cnc(-c6cncc(OCc7ccccc7)c6)cc45)nc23)c1 [Compound 950, 5-(5-(Benzyloxy)pyridin-3-yl)-3-(4-(3-fluorophenyl)-1H-benzo[d]imidazol-2-yl)-1H-pyrazolo[3,4-c]pyridine] | 0.165 µM
20 | O=C(CC1CCCCC1)Nc1cncc(-c2cc3c(-c4nc5c(-c6cccc(F)c6)cccc5[nH]4)n[nH]c3cn2)c1 [Compound 951, 2-Cyclohexyl-N-(5-(3-(4-(3-fluorophenyl)-1H-benzo[d]imidazol-2-yl)-1H-pyrazolo[3,4-c]pyridin-5-yl)pyridin-3-yl)acetamide] | 0.115 µM
21 | CC(C)CC(=O)Nc1cncc(-c2cc3c(-c4nc5c(-c6cc(F)cc(OCCN(C)C)c6)cccc5[nH]4)n[nH]c3cn2)c1 [Compound 1262, N-(5-(3-(4-(3-(2-(Dimethylamino)ethoxy)-5-fluorophenyl)-1H-benzo[d]imidazol-2-yl)-1H-pyrazolo[3,4-c]pyridin-5-yl)pyridin-3-yl)-3-methylbutanamide] | 0.747 µM
22 | CC(C)CC(=O)Nc1cncc(-c2cc3c(-c4nc5c(-c6cc(F)cc(OCCN7CCCC7)c6)cccc5[nH]4)n[nH]c3cn2)c1 [Compound 1306, N-(5-(3-(4-(3-Fluoro-5-(2-(pyrrolidin-1-yl)ethoxy)phenyl)-1H-benzo[d]imidazol-2-yl)-1H-pyrazolo[3,4-c]pyridin-5-yl)pyridin-3-yl)-3-methylbutanamide] | 1.37 µM
